Source: patent US5919781A, “Use of NK-1 receptor antogonists for treating substance use disorders” (Merck Sharp & Dohme Ltd., priority 1996, dated 1999)
Where two headings read alike, the source gives them in different places.

What was measured:
[1] = system: morphine withdrawal response in guinea-pigs; conditions: systemic administration, only high doses active, Chahl & Johnston, 1992; cited from earlier work
[2] = system: cisplatin-induced emesis in ferrets; test: Ferret emesis (Assay 3), inhibition of cisplatin-induced emesis; assay type: in vivo; conditions: Mustela putorius, po, 60 minutes before cisplatin 10 mg/kg i.v.; 4 hours observation; read-out: ferret emesis: ID90
Description: ASSAY 3: Ferret Emesis […] Ten minutes later they are fed with approximately 100 g of tinned cat food. At 60 minutes following oral dosing, cisplatin (10 mg/kg) is given i.v. via a jugular vein catheter inserted under a brief period of halothane anaesthesia. The catheter is then removed, the jugular vein ligated and the skin incision closed. The ferrets recover rapidly from the anaesthetic and are mobile within 10-20 minutes. The animals are observed continuously during recovery from the anaesthetic and for 4 hours following the cisplatin injection. The numbers of retches and vomits occurring during the 4 hours after cisplatin administration are recorded by trained observers.

NK-1 receptor = target: T1, NK-1 receptor (Meriones unguiculatus, UniProt Q5DUB1); test: Gerbil foot-tapping (Assay 2), inhibition of foot tapping induced by central infusion of NK-1 receptor agonist GR73632; assay type: in vivo, Mongolian gerbils; conditions: iv
T1 construct: male or female Mongolian gerbils (35-70 g) are anaesthetised; from tissue; host or cells: brain of the living Mongolian gerbil (in vivo, agonist infused intracerebroventricularly)
Text: ASSAY 2: Gerbil Foot-Tapping
CNS-penetrant NK-1 receptor antagonists for use in the present invention can be identified by their ability to inhibit foot tapping in gerbils induced by anxiogenic agents (such as pentagastrin) or central infusion of NK-1 receptor agonists such as GR73632, or caused by aversive stimulation such as foot shock or single housing, based on the method of Rupniak & Williams, Eur. J. Pharmacol., 1994, 265, 179.
Briefly, male or female Mongolian gerbils (35-70 g) are anaesthetised by inhalation of an isoflurane/oxygen mixture to permit exposure of the jugular vein in order to permit administration of test compounds or vehicle in an injection volume of 5 ml/kg i.v. Alternatively, test compounds may be administered orally or by subcutaneous or intraperitoneal routes. A skin incision is then made in the midline of the scalp to expose the skull. […]

[3] = system: naloxone-precipitated withdrawal signs in rats; conditions: central (i.c.v.) injection; rats receiving morphine for five days; Maldonado et al, 1993; cited from earlier work

T1 sequence (Q5DUB1 whole entry, the tested form may be a part): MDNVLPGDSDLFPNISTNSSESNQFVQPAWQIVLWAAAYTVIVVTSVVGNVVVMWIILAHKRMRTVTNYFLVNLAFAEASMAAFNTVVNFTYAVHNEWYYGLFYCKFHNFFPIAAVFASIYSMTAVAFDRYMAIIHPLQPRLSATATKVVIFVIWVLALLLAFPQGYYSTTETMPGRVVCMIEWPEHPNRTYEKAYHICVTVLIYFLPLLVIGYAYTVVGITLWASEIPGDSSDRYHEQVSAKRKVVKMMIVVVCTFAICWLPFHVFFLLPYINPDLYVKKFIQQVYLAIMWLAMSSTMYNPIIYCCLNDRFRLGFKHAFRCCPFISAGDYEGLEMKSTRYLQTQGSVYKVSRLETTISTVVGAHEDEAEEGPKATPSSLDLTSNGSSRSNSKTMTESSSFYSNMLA

**Q.** Which “doses active in blocking the withdrawal response” value [1] does the source give for `COc1ccccc1CNC1C2CCN(CC2)C1C(c1ccccc1)c1ccccc1` (centres unmarked) [CP-96,345] here?
**A.** The value was 20 mg/kg.

**Q.** Which ED90 [2] does the source give for `C[C@@H](O[C@H]1OCCN(Cc2n[nH]c(=O)[nH]2)[C@H]1c1ccc(F)cc1)c1cc(C(F)(F)F)cc(C(F)(F)F)c1` [2-(R)-(1-(R)-(3,5-bis(trifluoromethyl)phenyl)ethoxy)-3-(S)-(4-fluorophenyl)-4-(3-(5-oxo-1H,4H-1,2,4-triazolo)methyl)morpholine] here?
**A.** Its ED90 is < 3 mg/kg.

**Q.** What about the ED50 (NK-1 receptor; 5 min, i.v., 5 mins., administered immediately prior to GR73632 challenge, read-out: gerbil foot-tapping (5 mins.): ID50) of the same compound?
**A.** The ED50 was 0.36 mg/kg.

**Q.** What about the ED50 (NK-1 receptor; 24 hours prior to central NK1 agonist challenge, read-out: gerbil foot-tapping (24 hrs.): ID50) of the same compound?
**A.** The ED50 was 0.33 mg/kg.

**Q.** For `COc1ccccc1CC(=N)N1CC2C(=O)CCC(c3ccccc3)(c3ccccc3)C2C1` (centres unmarked) [RP67580], which “attenuation of naloxone-precipitated withdrawal signs” value [3] is on record?
**A.** Its value is “could attenuate naloxone-precipitated withdrawal signs”.
